Source: patent US11814391B2, “Macrocyclic compounds for the treatment of medical disorders” (Achillion Pharmaceuticals, Inc., priority 2018, dated 2023)
Where two headings read alike, the source gives them in different places.

Details: rcm bond, Grubbs II

Compound: C=C(C)c1cc2c3c(c1)c(C(C)=O)nn3CC(=O)N1[C@H](C(=O)Nc3nc(C(F)(F)F)ccc3C)C[C@@]3(CNC(=O)CCCC=CC2)C[C@@H]13
- ring closure, isolated yield (from C=CCCCC(=O)NC[C@@]12C[C@@H](C(=O)Nc3nc(C(F)(F)F)ccc3C)N(C(=O)Cn3nc(C(C)=O)c4cc(C(=C)C)cc(CC=C)c43)[C@@H]1C2, 17-membered ring, toluene, 1.43 mM, 80.0 °C, 16.0 h): 21.7%

Compound: C=Cc1cc(-c2cnc(C)nc2)cc2c(C(C)=O)nn(CC(=O)N3[C@H](C(=O)Nc4nc(C(F)(F)F)ccc4C)C[C@@]4(CNC(=O)C[C@@H](C)CCC=C(C)C)C[C@@H]34)c12
- ring closure, isolated yield (the molecule shown is the open-chain precursor, 17-membered ring, DCE, 1.25 mM, 50.0 °C): 55.6%

Compound: CC(=O)c1nn2c3c(cc(-c4cnc(C)cn4)cc13)CC=CCC[C@@H](C)C(=O)NC[C@@]13C[C@@H](C(=O)Nc4nc(C(F)(F)F)ccc4C)N(C(=O)C2)[C@@H]1C3
- ring closure, isolated yield (from C=CCC[C@@H](C)C(=O)NC[C@@]12C[C@@H](C(=O)Nc3nc(C(F)(F)F)ccc3C)N(C(=O)Cn3nc(C(C)=O)c4cc(-c5cnc(C)cn5)cc(CC=C)c43)[C@@H]1C2, 17-membered ring, toluene, 1.32 mM, 80.0 °C): 62.1%

Compound: CC(=O)c1nn2c3c(cc(-c4cnc(C)nc4)cc13)CC=CCC(C)(C)CC(=O)NC[C@@]13C[C@@H](C(=O)Nc4nc(C(F)(F)F)ccc4C)N(C(=O)C2)[C@@H]1C3
- ring closure, isolated yield (from C=CCc1cc(-c2cnc(C)nc2)cc2c(C(C)=O)nn(CC(=O)N3[C@H](C(=O)Nc4nc(C(F)(F)F)ccc4C)C[C@@]4(CNC(=O)CC(C)(C)CC=C)C[C@@H]34)c12, 17-membered ring, toluene, 1.2 mM, 80.0 °C): 67.4%

Compound: CC(=O)c1nn2c3c(cc(-c4cnc(C)nc4)cc13)CC=CCCCC(=O)N(C)C[C@@]13C[C@@H](C(=O)Nc4cc(F)cc(Br)n4)N(C(=O)C2)[C@@H]1C3
- ring closure, isolated yield (from C=CCCCC(=O)N(C)C[C@@]12C[C@@H](C(=O)Nc3cc(F)cc(Br)n3)N(C(=O)Cn3nc(C(C)=O)c4cc(-c5cnc(C)nc5)cc(CC=C)c43)[C@@H]1C2, 17-membered ring, toluene, 1.29 mM, 80.0 °C, 16.0 h): 94.5%

Compound: CC(=O)c1nn2c3c(cc(-c4cnc(C)nc4)cc13)CC=CCCCCN(C(=O)OC(C)(C)C)C[C@@]13C[C@@H](C(=O)Nc4nc(C(F)(F)F)ccc4C)N(C(=O)C2)[C@@H]1C3
- ring closure, isolated yield (from C=CCCCCN(C[C@@]12C[C@@H](C(=O)Nc3nc(C(F)(F)F)ccc3C)N(C(=O)Cn3nc(C(C)=O)c4cc(-c5cnc(C)nc5)cc(CC=C)c43)[C@@H]1C2)C(=O)OC(C)(C)C, 17-membered ring, toluene, 1.2 mM, 80.0 °C): 60.4%

Compound: CC(=O)c1nn2c3c(cc(-c4cnc(C)nc4)cc13)CC=CCC[C@@H](C)C(=O)NC[C@@]13C[C@@H](C(=O)Nc4cc(F)cc(Br)n4)N(C(=O)C2)[C@@H]1C3
- ring closure, isolated yield (from C=CCC[C@@H](C)C(=O)NC[C@@]12C[C@@H](C(=O)Nc3cc(F)cc(Br)n3)N(C(=O)Cn3nc(C(C)=O)c4cc(-c5cnc(C)nc5)cc(CC=C)c43)[C@@H]1C2, 17-membered ring, toluene, 1.63 mM, 80.0 °C, 16.0 h): 72.6%

Compound: CC(=O)c1nn2c3c(cc(-c4cnc(C)nc4)cc13)CC=CCC[C@@H](C)C(=O)NC[C@@]13C[C@@H](C(=O)Nc4ccc(F)c(Br)n4)N(C(=O)C2)[C@@H]1C3
- ring closure, isolated yield (from C=CCC[C@@H](C)C(=O)NC[C@@]12C[C@@H](C(=O)Nc3ccc(F)c(Br)n3)N(C(=O)Cn3nc(C(C)=O)c4cc(-c5cnc(C)nc5)cc(CC=C)c43)[C@@H]1C2, 17-membered ring, toluene, 1.67 mM, 80.0 °C): 62.8%

Compound: CC(=O)c1nn2c3c(cc(-c4cnc(C)nc4)cc13)CCCCCCC=CCCN([C@@H](C)C(=O)Nc1nc(Br)ccc1C)C(=O)C2
- ring closure, isolated yield (from C=CCCCCCCc1cc(-c2cnc(C)nc2)cc2c(C(C)=O)nn(CC(=O)N(CCC=C)[C@@H](C)C(=O)Nc3nc(Br)ccc3C)c12, 16-membered ring, toluene, 1.33 mM, 80.0 °C, 16.0 h): 88.9%

Compound: CC(=O)c1nn2c3c(cc(-c4cnc(C)nc4)cc13)CCCCCCC=CCc1ccc(Br)nc1NC(=O)[C@H](C)N(C)C(=O)C2
- ring closure, isolated yield (from C=CCCCCCCc1cc(-c2cnc(C)nc2)cc2c(C(C)=O)nn(CC(=O)N(C)[C@@H](C)C(=O)Nc3nc(Br)ccc3CC=C)c12, 20-membered ring, toluene, 1.4 mM, 80.0 °C, 16.0 h): 63.8%

Compound: CC(=O)c1nn2c3c(cc(-c4cnc5cc(C)nn5c4)cc13)CC=CCC[C@@H](C)C(=O)NC[C@@]13C[C@@H](C(=O)Nc4nc(C(F)(F)F)ccc4C)N(C(=O)C2)[C@@H]1C3
- ring closure, isolated yield (from C=CCC[C@@H](C)C(=O)NC[C@@]12C[C@@H](C(=O)Nc3nc(C(F)(F)F)ccc3C)N(C(=O)Cn3nc(C(C)=O)c4cc(-c5cnc6cc(C)nn6c5)cc(CC=C)c43)[C@@H]1C2, 17-membered ring, toluene, 1.64 mM, 80.0 °C): 66.7%

Compound: CC(=O)c1nn2c3c(cc(-c4nnc(C)o4)cc13)CC=CCCCC(=O)NC[C@@]13C[C@@H](C(=O)Nc4nc(C(F)(F)F)ccc4C)N(C(=O)C2)[C@@H]1C3
- ring closure, isolated yield (from C=CCCCC(=O)NC[C@@]12C[C@@H](C(=O)Nc3nc(C(F)(F)F)ccc3C)N(C(=O)Cn3nc(C(C)=O)c4cc(-c5nnc(C)o5)cc(CC=C)c43)[C@@H]1C2, 17-membered ring, toluene, 1.36 mM, 80.0 °C, 16.0 h): 83.2%

Compound: CC(=O)c1nn2c3c(cc(C)cc13)CC=CCCCC(=O)NC[C@@]13C[C@@H](C(=O)Nc4nc(C(F)(F)F)ccc4C)N(C(=O)C2)[C@@H]1C3
- ring closure, isolated yield (from C=CCCCC(=O)NC[C@@]12C[C@@H](C(=O)Nc3nc(C(F)(F)F)ccc3C)N(C(=O)Cn3nc(C(C)=O)c4cc(C)cc(CC=C)c43)[C@@H]1C2, 17-membered ring, toluene, 1.77 mM, 80.0 °C, 16.0 h): 86.7%
- ring closure, isolated yield (from C=CCCCC(=O)NC[C@@]12C[C@@H](C(=O)Nc3nc(C(F)(F)F)ccc3C)N(C(=O)Cn3nc(C(C)=O)c4cc(C)cc(CC=C)c43)[C@@H]1C2, 17-membered ring, toluene, 1.88 mM, 80.0 °C, 12.0 h): 62.6%

Compound: CC(=O)c1nn2c3c(cc(C=C(C)C)cc13)CC=CCCCC(=O)NC[C@@]13C[C@@H](C(=O)Nc4nc(C(F)(F)F)ccc4C)N(C(=O)C2)[C@@H]1C3
- ring closure, isolated yield (from C=CCCCC(=O)NC[C@@]12C[C@@H](C(=O)Nc3nc(C(F)(F)F)ccc3C)N(C(=O)Cn3nc(C(C)=O)c4cc(C=C(C)C)cc(CC=C)c43)[C@@H]1C2, 17-membered ring, toluene, 1.67 mM, 80.0 °C, 16.0 h): 69.4%

Compound: CC(=O)c1nn2c3c(cc(CCC(C)C)cc13)CC=CCCCC(=O)NC[C@@]13C[C@@H](C(=O)Nc4nc(C(F)(F)F)ccc4C)N(C(=O)C2)[C@@H]1C3
- ring closure, isolated yield (from C=CCCCC(=O)NC[C@@]12C[C@@H](C(=O)Nc3nc(C(F)(F)F)ccc3C)N(C(=O)Cn3nc(C(C)=O)c4cc(CCC(C)C)cc(CC=C)c43)[C@@H]1C2, 17-membered ring, toluene, 1.38 mM, 80.0 °C, 16.0 h): 27.7%

Compound: CC(=O)c1nn2c3c(cc(N4CCCC4)cc13)CC=CCCCC(=O)NC[C@@]13C[C@@H](C(=O)Nc4nc(C(F)(F)F)ccc4C)N(C(=O)C2)[C@@H]1C3
- ring closure, isolated yield (from C=CCCCC(=O)NC[C@@]12C[C@@H](C(=O)Nc3nc(C(F)(F)F)ccc3C)N(C(=O)Cn3nc(C(C)=O)c4cc(N5CCCC5)cc(CC=C)c43)[C@@H]1C2, 17-membered ring, toluene, 2.0 mM, 80.0 °C, 16.0 h): 92.5%

Compound: CC(=O)c1nn2c3c(cc(NC(=O)OC(C)(C)C)cc13)CC=CCCCC(=O)NC[C@@]13C[C@@H](C(=O)Nc4nc(C(F)(F)F)ccc4C)N(C(=O)C2)[C@@H]1C3
- ring closure, isolated yield (from C=CCCCC(=O)NC[C@@]12C[C@@H](C(=O)Nc3nc(C(F)(F)F)ccc3C)N(C(=O)Cn3nc(C(C)=O)c4cc(NC(=O)OC(C)(C)C)cc(CC=C)c43)[C@@H]1C2, 17-membered ring, toluene, 1.3 mM, 80.0 °C, 16.0 h): 78.9%

Compound: CC(=O)c1nn2c3c(cc(OCC(C)C)cc13)CC=CCCCC(=O)NC[C@@]13C[C@@H](C(=O)Nc4nc(C(F)(F)F)ccc4C)N(C(=O)C2)[C@@H]1C3
- ring closure, isolated yield (from C=CCCCC(=O)NC[C@@]12C[C@@H](C(=O)Nc3nc(C(F)(F)F)ccc3C)N(C(=O)Cn3nc(C(C)=O)c4cc(OCC(C)C)cc(CC=C)c43)[C@@H]1C2, 17-membered ring, toluene, 1.71 mM, 80.0 °C, 16.0 h): 92%

Compound: CC(=O)c1nn2c3c(cc(Oc4ncc(C)cn4)cc13)CC=CCCCC(=O)NC[C@@]13C[C@@H](C(=O)Nc4nc(C(F)(F)F)ccc4C)N(C(=O)C2)[C@@H]1C3
- ring closure, isolated yield (from C=CCCCC(=O)NC[C@@]12C[C@@H](C(=O)Nc3nc(C(F)(F)F)ccc3C)N(C(=O)Cn3nc(C(C)=O)c4cc(Oc5ncc(C)cn5)cc(CC=C)c43)[C@@H]1C2, 17-membered ring, toluene, 1.5 mM, 80.0 °C): 61.5%

Compound: CN(C(=O)OCc1ccccc1)[C@H]1CC=CCCCCCCc2ccc(Br)nc2NC1=O
- ring closure, isolated yield (from C=CCCCCCCc1ccc(Br)nc1NC(=O)[C@H](CC=C)N(C)C(=O)OCc1ccccc1, 14-membered ring, toluene, 1.85 mM, 80.0 °C, 16.0 h): 79.6%

Compound: (1,R,3S,5R)-2-{2-[3-Acetyl-5-methoxy-7-(prop-2-en-1-yl)indazol-1-yl]acetyl}-5-(hex-5-enamidonaethyl)-N-[3-methyl-6-(trifluoromethyl)pyridin-2-yl]-2-azabicyclo[3.1.0]hexane-3-carboxamide
- ring closure, isolated yield (the molecule shown is the open-chain precursor, 17-membered ring, toluene, 1.43 mM, 80.0 °C): 69.1%

Compound: (1R,3S,5R)-2-(2-(3-Acetyl-7-allyl-5-(2-methylpyrimidin-5-yl)-1H-indazol-1-yl)acetyl)-N-(3-methyl-6-(trifluoromethyl)pyridin-2-yl)-5-(((R)-2-methylhex-5-amido)methyl)-2-azabicyclo[3.1.0]hexane-3-carboxamide
- ring closure, isolated yield (the molecule shown is the open-chain precursor, 17-membered ring, toluene, 1.72 mM, 80.0 °C): 47.9%
